Assays:
[1] = biological target: Dihydroorotate dehydrogenase (quinone), mitochondrial (Homo sapiens) (UniProt Q02127); test: Inhibition of human DHODH at 100 uM
[2] = biological target: T1, Dihydroorotate dehydrogenase (fumarate) (Leishmania major) (UniProt Q4QEW7); test: Inhibition of recombinant oligo-histidine-tagged Leishmania major DHODH expressed in Escherichia coli BL21(DE3) cells at 100 uM using DHO as substrate measured after 60 secs
T1 sequence (whole entry): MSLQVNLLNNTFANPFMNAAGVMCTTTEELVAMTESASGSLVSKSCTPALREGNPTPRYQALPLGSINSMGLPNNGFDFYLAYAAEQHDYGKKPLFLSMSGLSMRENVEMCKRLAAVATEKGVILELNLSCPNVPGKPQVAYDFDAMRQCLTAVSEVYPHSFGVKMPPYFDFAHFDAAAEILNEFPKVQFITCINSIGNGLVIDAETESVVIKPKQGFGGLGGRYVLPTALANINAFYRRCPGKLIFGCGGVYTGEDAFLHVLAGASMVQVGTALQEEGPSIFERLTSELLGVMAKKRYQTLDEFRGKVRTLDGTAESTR

[3] = biological target: T2, Dihydroorotate dehydrogenase (fumarate) (Leishmania major, UniProt Q4QEW7); test: Inhibition of recombinant oligo-histidine-tagged Leishmania major DHODH expressed in Escherichia coli BL21(DE3) cells using DHO as substrate measured after 60 secs
T2 sequence (Q4QEW7 whole entry): T1 sequence (whole entry)

[4] = tested on: Trypanosoma cruzi; test: Antitrypanosomal activity against Trypanosoma cruzi trypomastigotes; type: functional, organism-based
[5] = biological target: T1, Dihydroorotate dehydrogenase (fumarate) (Leishmania major); test: Binding affinity to Leishmania major DHODH assessed as change in melting temperature at 100 uM by differential scanning fluorimetry-based ThermoFMN assay
[6] = biological target: T1, Dihydroorotate dehydrogenase (fumarate) (Leishmania major); test: Binding affinity to Leishmania major DHODH assessed as change in melting temperature at 500 uM by differential scanning fluorimetry-based ThermoFMN assay
[7] = biological target: T1, Dihydroorotate dehydrogenase (fumarate) (Leishmania major); test: Binding affinity to Leishmania major DHODH assessed as change in melting temperature at 1000 uM by differential scanning fluorimetry-based ThermoFMN assay
[8] = biological target: T1, Dihydroorotate dehydrogenase (fumarate) (Leishmania major); test: Binding affinity to Leishmania major DHODH assessed as change in melting temperature at 100 uM by SYPRO orange dye-based differential scanning fluorimetry
[9] = biological target: T1, Dihydroorotate dehydrogenase (fumarate) (Leishmania major); test: Binding affinity to Leishmania major DHODH assessed as change in melting temperature at 500 uM by SYPRO orange dye-based differential scanning fluorimetry
[10] = biological target: T1, Dihydroorotate dehydrogenase (fumarate) (Leishmania major); test: Binding affinity to Leishmania major DHODH assessed as change in melting temperature at 1000 uM by SYPRO orange dye-based differential scanning fluorimetry
[11] = tested on: Leishmania amazonensis; test: Antileishmanial activity against Leishmania amazonensis WHOM/BR/75/Josefa promastigotes after 72 hrs by Neubauer chamber method; type: functional, organism-based
[12] = tested on: Leishmania amazonensis; test: Antileishmanial activity against Leishmania amazonensis WHOM/BR/75/Josefa amastigotes after 72 hrs by Neubauer chamber method; type: functional, organism-based
[13] = tested on: Leishmania braziliensis; test: Antileishmanial activity against Leishmania braziliensis H3227 MHOM/BR/94/H-3227 promastigotes after 72 hrs by MTT assay; type: functional, organism-based; conditions: H3227 MHOM/BR/94/H-3227, 72 h

Sequence of Dihydroorotate dehydrogenase (quinone), mitochondrial (Homo sapiens) (Q02127 whole entry): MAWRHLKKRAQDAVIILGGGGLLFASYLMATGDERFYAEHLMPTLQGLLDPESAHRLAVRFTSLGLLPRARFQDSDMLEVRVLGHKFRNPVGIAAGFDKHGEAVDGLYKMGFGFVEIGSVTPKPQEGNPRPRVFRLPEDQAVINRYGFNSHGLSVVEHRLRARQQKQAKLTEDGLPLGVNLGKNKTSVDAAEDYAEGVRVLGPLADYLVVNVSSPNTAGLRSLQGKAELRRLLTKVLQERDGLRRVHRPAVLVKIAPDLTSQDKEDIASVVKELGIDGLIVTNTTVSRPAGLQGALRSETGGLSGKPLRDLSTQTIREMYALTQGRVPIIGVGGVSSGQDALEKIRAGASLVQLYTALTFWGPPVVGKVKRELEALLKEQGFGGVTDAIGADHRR

Row | SMILES | IC50 ([3]; read-out: IC50) [µM] | ΔTm [5] [°C] | ΔTm [6] [°C] | ΔTm [7] [°C] | ΔTm [8] [°C] | ΔTm [9] [°C] | ΔTm [10] [°C] | further results
1 | C=C(C)C(=O)O[C@@H]1C[C@](C)(O)[C@@H]2C(=O)C=C(C)[C@@H]2[C@H]2OC(=O)C(=C)[C@@H]21 | 662 | – | – | – | – | – | – | –
2 | O=C(/C=C/c1ccc(O)c(O)c1)O[C@@H]1[C@H](O)C[C@@](O)(C(=O)O)C[C@H]1OC(=O)/C=C/c1ccc(O)c(O)c1 | 642 | – | – | – | – | – | – | –
3 | O=C(/C=C/c1ccc(O)c(O)c1)O[C@@H]1C[C@@](O)(C(=O)O)C[C@@H](O)[C@@H]1O | 1130 | – | – | – | – | – | – | –
4 | C=C(C)C(=O)O[C@@H]1C[C@@](C)(O)[C@@H]2C(=O)C=C(C)[C@@H]2[C@H]2OC(=O)C(=C)[C@@H]21 | 168 | – | – | – | – | – | – | –
5 | C=C1C(=O)O[C@@H]2[C@H]3C(C)=CC(=O)C3=C(C)C[C@@H](OC(=O)[C@]3(C)O[C@@H]3C)[C@@H]12 | 585 | -0.26 | -0.64 | -0.85 | -0.38 | -0.75 | -1.01 | –
6 | C=C(C)C(=O)O[C@H]1C[C@@]2(C)OC(=CC2=O)/C(C)=C\[C@H]2OC(=O)C(=C)[C@H]12 | 278 | – | – | – | – | – | – | IC50 [4]: 514 µM
7 | C=C1CC[C@H]2[C@@](C)(CCC[C@@]2(C)C(=O)O)[C@@H]1CCc1ccoc1 | 2620 | – | – | – | – | – | – | –
8 | CC[C@@H](C)[C@@]1(O)O[C@H]2C[C@@]3(C)OC(=CC3=O)/C(CO)=C\[C@H]3OC(=O)[C@@]1(C)[C@H]23 | 985 | -0.15 | -0.32 | -0.61 | -0.13 | -0.96 | -1.83 | IC50 ([3]; read-out: pIC50 (converted)): 794 µM
9 | C/C=C(/C)[C@@]1(O)O[C@H]2C[C@@]3(C)OC(=CC3=O)/C(C)=C\[C@H]3OC(=O)[C@@]1(C)[C@H]23 | 346 | – | – | – | – | – | – | –

Continued, in another order:

Row | IC50 ([3]; read-out: IC50) [µM] | ΔTm [5] [°C] | ΔTm [6] [°C] | ΔTm [7] [°C] | ΔTm [8] [°C] | ΔTm [9] [°C] | ΔTm [10] [°C] | SMILES | further results
10 | 73.2 | – | – | – | – | – | – | O=C(/C=C/c1ccc(O)c(O)c1)O[C@H]1[C@H](O)C[C@](O)(C(=O)O)C[C@H]1OC(=O)/C=C/c1ccc(O)c(O)c1 | inhibition [1]: 10%; inhibition [2]: 38%; IC50 [4]: 286 µM
11 | 644 | -0.48 | -1.07 | -1.48 | -0.09 | -0.17 | -0.07 | C=C1C(=O)O[C@@H]2/C=C(\C)CC/C=C(/C=O)[C@@H](O)[C@@H](OC(=O)/C(C)=C\C)[C@@H]12 | –
12 | 707 | – | – | – | – | – | – | C=C1CC[C@H]2[C@@](C)(CCC[C@@]2(C)C(=O)O)[C@@H]1CC/C(C)=C/C(=O)O | IC50 [11]: 83.7 to 111 µM; IC50 [12]: 47.4 to 50.8 µM
13 | 145 | -0.27 | -0.22 | -0.27 | -0.18 | -0.27 | -0.45 | C=C(C)C(=O)O[C@H]1C[C@@]2(C)OC(=CC2=O)[C@@H](C)C[C@H]2OC(=O)C(=C)[C@H]12 | –
14 | 1420 | – | – | – | – | – | – | C=C1[C@@H]2CC[C@H]3[C@]4(C)CCC[C@@](C)(C(=O)O)[C@H]4CC[C@]3(C2)[C@H]1OC(=O)/C=C/c1ccccc1 | –
15 | 1280 | – | – | – | – | – | – | O=C(/C=C/c1ccc(O)c(O)c1)O[C@@H]1CC(O)(C(=O)O)C[C@@H](OC(=O)/C=C/c2ccc(O)c(O)c2)C1O (some centres undefined) | –
16 | 1200 | -0.41 | -0.65 | -0.76 | -0.86 | -1.8 | -1.39 | CC[C@@H](C)[C@@]1(O)O[C@H]2C[C@@]3(C)OC(=CC3=O)/C(COC(C)=O)=C\[C@H]3OC(=O)[C@@]1(C)[C@H]23 | –
17 | 610 | – | – | – | – | – | – | COc1ccc(/C=C/C(=O)NC2CCCN2C(=N)N)cc1O (centres undefined) | –
18 | 103 | – | – | – | – | – | – | C=C1C(=O)O[C@@H]2/C=C(/C)C(=O)[C@@H]3O[C@H]3[C@](C)(O)C[C@@H](OC(=O)C(C)C)[C@@H]12 | inhibition [1]: 12%; inhibition [2]: 42%; IC50 [13]: 6 µM
19 | – | 1.29 | 4.32 | 6.12 | 0.39 | 1.43 | 1.62 | O=C(O)c1cc(=O)[nH]c(=O)[nH]1 | –

From ChEMBL document CHEMBL4261582, “Natural products as inhibitors of Leishmania major dihydroorotate dehydrogenase” (Eur J Med Chem, 2018)
